In patent US20250136555A1 (HARBIN MEDISAN PHARMACEUTICAL CO., LTD., priority 2022, published 2025):
Entries after “also recorded” stand apart in the source; their conditions may differ.

How the values were obtained:
[1] = test system: PPARα/δ downstream target genes; assay: Expression of PPARα/δ downstream target genes in mouse liver and skeletal muscle; format: in vivo, C57 mice; details: mice, 0.03 and 0.1 mg/kg, three days
Procedure: C57 mice were divided into three groups, i.e., a control group, a low dose group (0.03 mg/kg), and a high dose group (0.1 mg/kg), with 6 mice in each group. Each group of mice was intragastrically administered compound 1 or a solvent control with the same volume for three consecutive days according to the doses. Three days after administration, the mice were euthanized and dissected for sampling. Liver and skeletal muscle were snap-frozen in liquid nitrogen for subsequent experiments. After extracting RNA in the liver and skeletal muscle, the up-regulation fold of the expression of the PPARα/δ downstream target genes was detected. […] Some of other compounds of the present invention also have similar effects.

[2] = test system: C57 mice; assay: Serum triglyceride levels in mice; format: in vivo
Procedure: Animals: 48 male C57 mice, SPF grade, 8 weeks old, weighing about 20 g, purchased from Beijing Vital River. All animals maintained a 12-hour alternating circadian rhythm and were given ad libitum access to food and water. […] Mice in the control group were administered a solvent control CMC-Na every day, and mice in each of the administration groups were administered the corresponding drug every day. Intragastric administration was performed for 5 consecutive days, and the mice were given ad libitum access to food and water during administration. Each group of mice was weighed every day, and their body weight, hair, feces, and activities were carefully observed and recorded. Two hours after administration on day 5, blood was collected from the orbit, and the mice were euthanized. The whole blood was left to stand at room temperature for 2 h and centrifuged at 3000 rpm for 15 min, and serum was collected. The serum was placed onto the automatic biochemical analyzer (Google Biotechnology Co., Ltd.) to determine the triglyceride (TG) levels in the serum.

[3] = test system: ANIT-induced cholestasis in mice; assay: α-Naphthylisothiocyanate (ANIT)-induced cholestasis in mice; format: in vivo, C57 mice
Procedure: Animals: 25 male C57 mice, SPF grade, 8 weeks old, weighing about 20 g, purchased from Beijing Vital River. All animals maintained a 12-hour alternating circadian rhythm and were given ad libitum access to food and water. […] The mice were all fed food and water normally. The molding and administration processes were as follows: the mice in each of the administration groups were intragastrically administered the corresponding doses and types of compounds 6 h before modeling, and the mice in the control group and the model group were administered solvent controls with the same volume. When modeling, except for the control group, the mice in each group were intragastrically administered ANIT at a dose of 80 mg/kg, and the mice in the control group were administered the solvent control with the same volume. The administration was then continued for two days, once per day. Each group of mice was weighed every day, and their body weight, hair, feces, and activities were carefully observed and recorded. Forty-eight hours after giving ANIT for molding, blood was collected from the orbit, the mice were euthanized, and the liver was collected. The right lobular tissue of the liver was fixed with 4% paraformaldehyde and used for sectioning followed by HE staining. The remaining liver tissues were snap-frozen in liquid nitrogen for subsequent assays of other indexes. The whole blood was left to stand at room temperature for 2 h and centrifuged at 3000 rpm for 15 min, and serum was collected. Levels of aspartate aminotransferase (AST), alanine aminotransferase (ALT), alkaline phosphatase (ALP), total bilirubin (TBil), and total bile acid (TBA) in the serum were assayed. The fixed tissue was sent to Wuhan Servicebio Technology Co., Ltd. for preparing HE-stained sections. The test was performed using a tissue and blood alkaline phosphatase (AKP/ALP) activity assay kit (BC2145) purchased from Beijing Solarbio Science & Technology Co., Ltd. The liver tissue stored at −80° C. was taken and placed in liquid nitrogen, about 0.1 g of liver tissue was rapidly cut off, and 1 mL of an extracting solution was added. The mixture was ground thoroughly and centrifuged at 4° C. and 10000 rpm for 10 min, and the supernatant was collected for assay. The assay was performed by referring to the method in the product's instruction. Data were corrected according to protein concentrations of the samples, and the catalytic production of 1 μmol phenol per minute per milligram protein at 37° C. was defined as one enzymatic activity unit.

[4] = test system: NASH model mice; assay: NASH induced by HF-CDAA diet in mice; format: in vivo, C57 mice
[5] = test system: hepatic fibrosis model mice; assay: Tetrachloromethane-induced hepatic fibrosis in mice; format: in vivo, C57 mice
Procedure: Animals: 30 male C57 mice, SPF grade, 8 weeks old, weighing about 20 g, purchased from Beijing Vital River. All animals maintained a 12-hour alternating circadian rhythm and were given ad libitum access to food and water. […] The mice were all fed food and water normally, and the modeling lasted for 3 weeks. The mice in the model group and each of the administration groups were injected twice a week with a 25% CCl4 oil solution at a dose of 2 mL/kg, and the mice in the control group were injected with an oil solvent with the same volume. The administration was started at the same time of molding. […] After 3 weeks of administration, the mice were all fed food and water normally. Each group of mice was weighed every day, and their body weight, hair, feces, and activities were carefully observed and recorded. Twenty-four hours after the sixth injection of CCl4, the mice were dissected for sampling. Blood was collected from the orbit, the mice were euthanized, and the liver was collected. The right lobular tissue of the liver was fixed with 4% paraformaldehyde and used for sectioning followed by HE and sirius red staining. Part of liver tissues were divided into 3 parts and snap-frozen in liquid nitrogen for subsequent assays of other indexes. The pre-treated tissue was sent to Wuhan Servicebio Technology Co., Ltd. for preparing HE-stained sections and sirius red-stained sections. The liver tissue stored at −80° C. was taken and placed in liquid nitrogen, and about 200 mg of liver tissue was rapidly cut off. Hydroxyproline in the liver tissue was assayed according to the method in the product's instruction (Beijing Solarbio Science & Technology Co., Ltd., BC0255).

[6] = NASH model mice, 0.1 mg/kg intragastric daily, 2 weeks
[7] = compound 1 0.1 mg/kg vs GFT505 10 mg/kg

Cc1cc(CN2C(=O)CN(c3ccc(C(F)(F)F)cc3)C2=O)cc(C)c1OC(C)(C)C(=O)O [Compound 1, 2-(4-((2,5-Dioxo-3-(4-(trifluoromethyl)phenyl)imidazolidin-1-yl)methyl)-2,6-dimethylphenoxy)-2-methylpropionic Acid]
expression of PPARα/δ downstream target genes in liver and skeletal muscle [1]: significantly up-regulated | triglyceride level in mouse serum (FIG. 1) ([2]; 1 mg/kg intragastric, 5 consecutive days): significantly reduce the triglyceride level | effect in reducing triglycerides versus positive drugs ([2]; compound 1 1 mg/kg vs GFT505 1 mg/kg, pemafibrate 1 mg/kg, fenofibrate 30 mg/kg): significantly more effective in reducing triglycerides than GFT505 and pemafibrate at the equivalent dose; also recorded: superior to fenofibrate | intrahepatic cholestasis: liver morphology and serum color (FIG. 2) ([3]; ANIT 80 mg/kg, 0.03 and 0.1 mg/kg intragastric): effectively improve intrahepatic cholestasis | therapeutic effect on mouse cholestatic model (conclusion) ([3]; ANIT model): potent therapeutic effect | level of intrahepatic ALP (FIG. 4) ([3]; ANIT model, 0.03 and 0.1 mg/kg): significantly down-regulate | necrotic areas in the liver, HE staining (FIG. 5) ([3]; ANIT model, 0.03 and 0.1 mg/kg): dose-dependently reduce the number and area of necrotic areas | serum ALP (FIG. 3) ([3]; ANIT model, 0.03 and 0.1 mg/kg): a certain tendency to reduce | serum ALT level (FIG. 3) ([3]; ANIT model, 0.03 and 0.1 mg/kg): dose-dependently and significantly down-regulate | serum AST level (FIG. 3) ([3]; ANIT model, 0.03 and 0.1 mg/kg): dose-dependently and significantly down-regulate | serum TBA level (FIG. 3) ([3]; ANIT model, 0.03 and 0.1 mg/kg): dose-dependently and significantly down-regulate | serum TBil level (FIG. 3) ([3]; ANIT model, 0.03 and 0.1 mg/kg): dose-dependently and significantly down-regulate | ability to improve general appearance of the liver and serum color versus GFT505 ([3]; compound 1 0.03 mg/kg vs GFT505 30 mg/kg): comparable to the effect of GFT505 at 30 mg/kg | effects on reducing hepatic enzymes, total bilirubin and total bile acid versus GFT505 ([3]; compound 1 0.1 mg/kg vs GFT505 30 mg/kg): comparable to that of GFT505 at 30 mg/kg | effect on reducing intrahepatic ALP versus GFT505 ([3]; compound 1 at the two doses vs GFT505 30 mg/kg): slightly superior to that of GFT505 at 30 mg/kg | pathological state of NASH mice (conclusion) ([4]; 0.1 mg/kg): significantly improve the pathological state | collagen deposition in liver, sirius red staining (FIG. 8) ([4]; NASH model mice, 0.1 mg/kg): reduce collagen deposition | inflammatory infiltration in hepatic lobules, HE staining (FIG. 7) ([4]; NASH model mice, 0.1 mg/kg): reduce inflammatory infiltration | lipid droplets in liver, oil red staining (FIG. 9) ([4]; NASH model mice, 0.1 mg/kg): reduce the number and area of lipid droplets | liver mRNA expression level of Acta2 (FIG. 12) ([4]; NASH model mice, 0.1 mg/kg): inhibit the increase | liver mRNA expression level of Ccl2 (FIG. 11) ([4]; NASH model mice, 0.1 mg/kg): inhibit the increase | liver mRNA expression level of Ccl5 (FIG. 11) ([4]; NASH model mice, 0.1 mg/kg): inhibit the increase | liver mRNA expression level of Cd11b (FIG. 11) ([4]; NASH model mice, 0.1 mg/kg): inhibit the increase | liver mRNA expression level of Col1a1 (FIG. 12) ([4]; NASH model mice, 0.1 mg/kg): inhibit the increase | liver mRNA expression level of Col3a1 (FIG. 12) ([4]; NASH model mice, 0.1 mg/kg): inhibit the increase | liver mRNA expression level of Tgfb1 (FIG. 12) ([4]; NASH model mice, 0.1 mg/kg): inhibit the increase | liver mRNA expression level of Tnf (FIG. 11) ([4]; NASH model mice, 0.1 mg/kg): inhibit the increase | triglyceride content in the liver (FIG. 10) ([4]; NASH model mice, 0.1 mg/kg): reduce triglyceride accumulation | serum ALT level (FIG. 6) [4, 6]: down-regulated | serum AST level (FIG. 6) [4, 6]: down-regulated | effect on reducing hepatic enzymes versus GFT505 [4, 7]: slightly better effect on reducing the levels of hepatic enzymes than that of GFT505 at 10 mg/kg | effect on reducing hepatic triglycerides versus GFT505 [4, 7]: superior to that of GFT505 at 10 mg/kg | effect on reducing lipid accumulation versus GFT505 [4, 7]: superior to that of GFT505 at 10 mg/kg | therapeutic effect in NASH mice versus GFT505 [4, 7]: equivalent therapeutic effect to that of GFT505 at a dose of 10 mg/kg | collagen deposition in liver, sirius red staining (FIG. 15) ([5]; CCl4 model): significantly reduce collagen deposition | effect on the hepatic fibrosis mouse model (conclusion) ([5]; CCl4 model): protective effect | inflammatory infiltration in liver, HE staining (FIG. 14) ([5]; CCl4 model): reduce inflammatory infiltration | hydroxyproline content in the liver (FIG. 13) ([5]; CCl4 model, 0.03 and 0.1 mg/kg intragastric daily, 3 weeks): dose-dependently reduce the hydroxyproline content | improving effect on collagen deposition versus GFT505 [5, 7]: superior to that of GFT505 at 10 mg/kg | effect on hydroxyproline content versus GFT505 ([5]; compound 1 0.1 mg/kg vs GFT505 at 30 mg/kg (so in the source)): superior to that of GFT505 at 30 mg/kg
